Tested on: 935938-334-R-J1-PDC complex spheroid viability
Experiment: Anticancer human tumor 935938-334-R-J1-PDC patient-derived small intestine adenocarcinoma cell line growth inhibition [POLQ]
Conditions: for IC50: curve of first compound; for viability, T/C: stronger effect = lower value
Procedure, shortened: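 Growth inhibition in 3D: complex spheroids (tumor PDC, HUVEC, MSC) treated with POLQ inhibitor combinations; where Cmax unknown, highest tested concentration 10 microM, except SN-38 at 1 microM.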

[1] = second compound 0.0316 µM, first compound 0.0316 µM
[2] = second compound 0.0316 µM, first compound 0.1 µM
[3] = second compound 0.0316 µM, first compound 0.316 µM
[4] = second compound 0.0316 µM, first compound 1 µM
[5] = second compound 0.1 µM, first compound 0.0316 µM
[6] = second compound 0.1 µM, first compound 0.1 µM
[7] = second compound 0.1 µM, first compound 0.316 µM
[8] = second compound 0.1 µM, first compound 1 µM
[9] = second compound 0.316 µM, first compound 0.0316 µM
[10] = second compound 0.316 µM, first compound 0.1 µM
[11] = second compound 0.316 µM, first compound 0.316 µM
[12] = second compound 0.316 µM, first compound 1 µM
[13] = second compound 1 µM, first compound 0.0316 µM
[14] = second compound 1 µM, first compound 0.1 µM
[15] = second compound 1 µM, first compound 0.316 µM
[16] = second compound 1 µM, first compound 1 µM
[17] = second compound 3.16 µM, first compound 0.0316 µM
[18] = second compound 3.16 µM, first compound 0.1 µM
[19] = second compound 3.16 µM, first compound 0.316 µM
[20] = second compound 3.16 µM, first compound 1 µM
[21] = second compound 10 µM, first compound 0.0316 µM
[22] = second compound 10 µM, first compound 0.1 µM
[23] = second compound 10 µM, first compound 0.316 µM
[24] = second compound 10 µM, first compound 1 µM
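Note: spheroids exposed to drugs for seven days before viability read.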
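Throughout, for viability, T/C: 100% = DMSO vehicle control wells.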

## CCc1c2c(nc3ccc(O)cc13)-c1cc3c(c(=O)n1C2)COC(=O)[C@]3(O)CC + COC1C(OC(N)=O)C(O)C(Oc2ccc3c(O)c(NC(=O)c4ccc(O)c(CC=C(C)C)c4)c(=O)oc3c2C)OC1(C)C
Second compound 0.0316 µM
  IC50: 16.6 nM
Second compound 0.1 µM
  IC50: 22.6 nM
Second compound 0.316 µM
  IC50: 17.8 nM
Second compound 1 µM
  IC50: 18.2 nM
Second compound 3.16 µM
  IC50: 13.9 nM
Second compound 10 µM
  IC50: 5.3 nM
Second compound 0.0316 µM, first compound 0.00316 µM
  viability, T/C: 82%
Second compound 0.0316 µM, first compound 0.01 µM
  viability, T/C: 59.3%
[1]
  viability, T/C: 38%
[2]
  viability, T/C: 29.4%
[3]
  viability, T/C: 22.9%
[4]
  viability, T/C: 27.8%
Second compound 0.1 µM, first compound 0.00316 µM
  viability, T/C: 75.8%
Second compound 0.1 µM, first compound 0.01 µM
  viability, T/C: 73.7%
[5]
  viability, T/C: 40.1%
[6]
  viability, T/C: 29.6%
[7]
  viability, T/C: 28.7%
[8]
  viability, T/C: 30.5%
Second compound 0.316 µM, first compound 0.00316 µM
  viability, T/C: 68%
Second compound 0.316 µM, first compound 0.01 µM
  viability, T/C: 63.8%
[9]
  viability, T/C: 36.2%
[10]
  viability, T/C: 27.3%
[11]
  viability, T/C: 29%
[12]
  viability, T/C: 22.4%
Second compound 1 µM, first compound 0.00316 µM
  viability, T/C: 62.9%
Second compound 1 µM, first compound 0.01 µM
  viability, T/C: 76.8%
[13]
  viability, T/C: 31.5%
[14]
  viability, T/C: 26.8%
[15]
  viability, T/C: 29.3%
[16]
  viability, T/C: 22.9%
Second compound 3.16 µM, first compound 0.00316 µM
  viability, T/C: 73.1%
Second compound 3.16 µM, first compound 0.01 µM
  viability, T/C: 57.4%
[17]
  viability, T/C: 31.6%
[18]
  viability, T/C: 30.2%
[19]
  viability, T/C: 27.8%
[20]
  viability, T/C: 28.4%
Second compound 10 µM, first compound 0.00316 µM
  viability, T/C: 53.2%
Second compound 10 µM, first compound 0.01 µM
  viability, T/C: 49.2%
[21]
  viability, T/C: 34.2%
[22]
  viability, T/C: 30.1%
[23]
  viability, T/C: 31.8%
[24]
  viability, T/C: 31.3%

## CC1COCCN1c1cc(C2(O)CC3CCC(C2)O3)c2cnn(-c3ccn[nH]3)c2n1 (centres undefined) + Nc1ccc(C#CCN(C(=O)Cc2ncc(C(F)(F)F)cc2C(F)(F)F)c2ccc(F)cc2)nn1
Second compound 0.0316 µM
  IC50: 74.7 nM
Second compound 0.1 µM
  IC50: 171 nM
Second compound 0.316 µM
  IC50: 102 nM
Second compound 1 µM
  IC50: 157 nM
Second compound 3.16 µM
  IC50: 125 nM
Second compound 10 µM
  IC50: 122 nM
[1]
  viability, T/C: 71.3%
[2]
  viability, T/C: 42.2%
[3]
  viability, T/C: 28%
[4]
  viability, T/C: 19.2%
Second compound 0.0316 µM, first compound 3.16 µM
  viability, T/C: 15.8%
Second compound 0.0316 µM, first compound 10 µM
  viability, T/C: 12.8%
[5]
  viability, T/C: 83.8%
[6]
  viability, T/C: 62.7%
[7]
  viability, T/C: 35.5%
[8]
  viability, T/C: 18.7%
Second compound 0.1 µM, first compound 3.16 µM
  viability, T/C: 15.4%
Second compound 0.1 µM, first compound 10 µM
  viability, T/C: 12.5%
[9]
  viability, T/C: 107%
[10]
  viability, T/C: 44.9%
[11]
  viability, T/C: 34.7%
[12]
  viability, T/C: 19.6%
Second compound 0.316 µM, first compound 3.16 µM
  viability, T/C: 18.1%
Second compound 0.316 µM, first compound 10 µM
  viability, T/C: 9.14%
[13]
  viability, T/C: 75.9%
[14]
  viability, T/C: 62.8%
[15]
  viability, T/C: 29.9%
[16]
  viability, T/C: 22.5%
Second compound 1 µM, first compound 3.16 µM
  viability, T/C: 15.3%
Second compound 1 µM, first compound 10 µM
  viability, T/C: 9.68%
[17]
  viability, T/C: 99.3%
[18]
  viability, T/C: 55.3%
[19]
  viability, T/C: 28.2%
[20]
  viability, T/C: 21.3%
Second compound 3.16 µM, first compound 3.16 µM
  viability, T/C: 16.1%
Second compound 3.16 µM, first compound 10 µM
  viability, T/C: 11.8%
[21]
  viability, T/C: 94.7%
[22]
  viability, T/C: 54.4%
[23]
  viability, T/C: 29.5%
[24]
  viability, T/C: 15.7%
Second compound 10 µM, first compound 3.16 µM
  viability, T/C: 18.7%
Second compound 10 µM, first compound 10 µM
  viability, T/C: 10.8%

— PubChem BioAssay AID1963829 (Molecular Pharmacology Branch, DTP, NCI, 2024)
